Results on 14 molecules are retold here after PubChem BioAssay (NCI).

Values joined by “and” are separate entries in the source; they are usually repeats but may differ in a detail not shown here. Identical values can stand only once.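 Where inhibition never reached the appropriate level, the endpoint shown equals the highest concentration tested. Otherwise, values were interpolated linearly from a five-concentration, 48-hour dose response in 96-well plates. GI50 = concentration required for 50% inhibition of growth. TGI: total growth inhibition.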

What all share (test): NCI anticancer screen, dose series, 48 h
For experiment [1], the system named is COLO 205 colon.
Experiment [2] has as its system CAKI-1 renal.
The test system of experiment [3] is ACHN renal.
The test system of experiment [4] is EKVX NSCLC.
Experiment [5] relates to OVCAR-3 ovarian.
The test system of experiment [6] is HOP-62 NSCLC.
In experiment [7] the test system is 786-0 renal.
Experiment [8] relates to LOX IMVI melanoma.
The test system of experiment [9] is HCC-2998 colon.
For experiment [10], the system named is MALME-3M melanoma.

For `NC12c3c4cccc3Oc3cccc(c31)Oc1cccc(c12)O4`, the TGI in [1], in [2], in [3], in experiment [4], in [5] and in experiment [6] was over 50 µM throughout. For the same molecule, the TGI in experiment [7] is over 50 µM.

As for `Brc1ccc(-c2ccc(-c3ccc(Br)s3)s2)s1`, the TGI in [1], in [3], in experiment [8], in experiment [4], in experiment [5] and in experiment [6] was over 100 µM throughout. For the same molecule, the TGI in experiment [9] and in experiment [7] was over 100 µM each time.

As for `CC(C)=NN/C(=N\S(=O)(=O)c1cc(Cl)c(Oc2ccc([N+](=O)[O-])cc2Cl)c(Cl)c1)Nc1ccc(Cl)cc1`, the TGI in experiment [1], in experiment [2], in experiment [8], in experiment [4], in [5] and in experiment [6] was over 100 µM throughout. The TGI in experiment [10] and in experiment [7] was over 100 µM throughout.

`CC(C)(C)[Si](C)(C)OCC1OC(n2ccc(=O)[nH]c2=O)C(O[Si](C)(C)C(C)(C)C)/C1=N/O` (stereo not given): the TGI in experiment [1] was 5.69 µM; in experiment [2], 37.9 µM; in experiment [3] it was 12.1 µM; in [8] it was 10.5 µM; in [4], 16.1 µM; in [5], over 100 µM. In addition, the results for the TGI in experiment [6], in [9] and in experiment [7] were 17 µM, 14.8 µM and 8.23 µM, respectively.

With `C=C1C(=O)O[C@H]2C1C[C@@H](O)[C@@]1(C)OC1CC[C@@]1(C)O[C@H]21` (stereo not given in full), the TGI in [1] amounted to 25.8 µM; in experiment [2], 34.1 µM; in experiment [3] it was 27 µM; in experiment [8] it was 27.5 µM; in experiment [4], 36 µM; in experiment [10] it was 29.2 µM. For the same molecule, the TGI in experiment [9] was 30.7 µM; in experiment [7], 40.9 µM.

As for `COc1cccc(-n2nnc3c(N)nc(N)nc32)c1`, the TGI in [1], in experiment [2], in experiment [3], in experiment [8], in experiment [4] and in [5] was over 100 µM each time. The TGI in [6], in [10] and in experiment [7] was over 100 µM throughout.

For the molecule `N#CC(C(=O)c1ccccc1F)c1nc2cc(C(F)(F)F)ccc2s1` (stereo not given), the TGI is 49.5 µM in [1]; over 100 µM in experiment [2]; 94.6 µM in experiment [3]; 36.7 µM in experiment [8]; 81.6 µM in experiment [4]; 52.7 µM in experiment [5]. Moreover, the results for the TGI in experiment [6], in experiment [10] and in [7] were 63.1 µM, 69.3 µM and 60.5 µM, respectively.

For the molecule `CC(=O)OCC1OC(n2c(-c3ccccc3)c(N=Nc3ccc(Cl)cc3)c(C)c(C#N)c2=S)C(OC(C)=O)C(OC(C)=O)C1OC(C)=O` (stereo not given), the GI50 is 28 µM and > 100 µM in [1]; 6.95 µM and 34.6 µM in [3]; 11.2 µM and > 100 µM in experiment [8]; 4.77 µM and 39.8 µM in experiment [5]; 20.1 µM and > 100 µM in [10]; 18 µM and > 100 µM in experiment [9]. The TGI in experiment [1] was 57.5 µM and > 100 µM; in [2], 63.9 µM and > 100 µM; in experiment [3] it was over 100 µM; in [8], 43.3 µM and > 100 µM; in experiment [5] it was 52.5 µM and > 100 µM; in experiment [6], 52.9 µM and > 100 µM. Besides, the TGI in experiment [10] was over 100 µM; in experiment [9] it was 63 µM and > 100 µM; in [7], > 100 µM and 88.6 µM.

On to `COc1cc(-c2ccc(-c3ccc(C(=N)N)s3)s2)cc(OC)c1OC`, for which the GI50 in experiment [2] is 1.7 µM; in experiment [3], 1.78 µM; in experiment [4] it was 1.92 µM; in experiment [5], 2.22 µM; in experiment [6] it was 1.97 µM; in experiment [10], 1.74 µM. Also, the GI50 in [9] is 1.76 µM. Moreover, the TGI in [2] was determined as 3.28 µM; in experiment [3] it was 3.17 µM; in experiment [4], 4.85 µM; in experiment [5] it was 4.71 µM; in [6], 3.97 µM; in experiment [10], 3.53 µM. In addition, the TGI in [9] came to 3.24 µM.

For `N#Cc1nn(-c2ccc(Cl)cc2)c(N)c2c(=N)n3nc(-c4ccccc4)cc3nc12`, the TGI in experiment [2] is over 100 µM; in experiment [3] it was over 100 µM; in experiment [8] it was over 37.9 µM; in [4] it was over 100 µM; in experiment [5], over 35.5 µM; in [6], over 33.8 µM. Further, the TGI was 0.0134 µM in experiment [9] and over 100 µM in experiment [7].

For `COC(=O)CCCc1ccc2c(c1)CCC2`, the TGI in [1], in [2], in experiment [3], in experiment [8], in experiment [5] and in experiment [6] was over 100 µM throughout. In addition, the TGI in [10], in [9] and in [7] was over 100 µM in each case.

Regarding `CCOC(=O)Cc1csc(/N=C\c2c(O)c3ccccc3oc2=O)n1`, the TGI is over 100 µM in [1]; over 100 µM in experiment [2]; over 100 µM in experiment [3]; over 100 µM in [8]; over 100 µM in experiment [4]; 77.1 µM in experiment [5]. Also, the TGI in [6] was 75.9 µM; in experiment [10], 24.3 µM; in experiment [7], over 100 µM.

Regarding `Cc1cccc(Nc2cn(CCOc3ccccc3)c(=O)[nH]c2=O)c1`, the TGI in experiment [1] is 36.8 µM; in experiment [2] it was over 100 µM; in [3], over 100 µM; in [8], 94 µM; in experiment [4] it was 39.8 µM; in experiment [5], 52.8 µM. In addition, the results for the TGI in experiment [6], in experiment [9] and in [7] were over 100 µM, 91.6 µM and over 100 µM, respectively.

On to `c1ccc(/C(=N/Nc2cnccn2)c2ncccn2)cc1`, for which the TGI in experiment [1], in [2], in experiment [3], in [4], in experiment [5] and in experiment [6] was over 100 µM throughout. Also, the TGI in experiment [9] and in experiment [7] was over 100 µM throughout.
